This assay has as its target T1, PKMYT1 enzyme (Homo sapiens, UniProt Q99640).
T1 construct: purchased Thermo Scientific A33387
T1 sequence (Q99640 1-499): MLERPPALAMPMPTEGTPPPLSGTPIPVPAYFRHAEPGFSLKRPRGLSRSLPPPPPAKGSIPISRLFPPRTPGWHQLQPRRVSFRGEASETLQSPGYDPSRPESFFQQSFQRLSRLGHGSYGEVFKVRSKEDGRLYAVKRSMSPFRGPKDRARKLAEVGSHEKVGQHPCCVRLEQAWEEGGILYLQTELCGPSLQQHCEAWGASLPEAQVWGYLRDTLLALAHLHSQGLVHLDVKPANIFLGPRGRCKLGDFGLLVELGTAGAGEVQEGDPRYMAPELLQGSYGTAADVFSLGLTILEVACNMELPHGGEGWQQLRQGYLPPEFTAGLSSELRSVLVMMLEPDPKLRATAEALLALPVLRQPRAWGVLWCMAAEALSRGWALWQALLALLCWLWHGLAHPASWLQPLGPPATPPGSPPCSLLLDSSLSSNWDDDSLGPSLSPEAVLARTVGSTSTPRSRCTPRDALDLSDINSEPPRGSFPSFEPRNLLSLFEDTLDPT
The assay can be described thus: PKMYT1 enzyme inhibition activity, ADP-GLO method. The format is biochemical. In general terms: ADP-Glo first removes unused ATP, then detects ADP through luciferase.

[1] abbreviates: PKMYT1 enzyme 10 nM, ATP 5 µM, 37°C 90 minutes; read-out: ADP-GLO IC50.

As a reminder, the IC50 is the midpoint of a concentration-inhibition curve.

Like-named read-outs stand apart in the source and are kept apart here.

Regarding `Cc1cc2c(C(N)=O)c(N)n(-c3c(C)cnc(O)c3C)c2nc1C` [Example 50, 2-Amino-1-(2-hydroxy-3,5-dimethylpyridin-4-yl)-5,6-dimethyl-1H-pyrrolo[2,3-b]pyridine-3-carboxamide], the IC50 under setting [1] came out at 220 nM.

Consider `Cc1cc(F)c(O)c(C)c1-n1c(N)c(C(N)=O)c2cc(N3CCCC3)c(C)nc21` (racemic) [Example 162], for which, under setting [1], the IC50 amounted to 14.5 nM.

Turning to `C#Cc1ncc2c(C(N)=O)c(N)n(-c3c(C)ccc(O)c3C)c2n1` [Example 47, 6-Amino-2-ethynyl-7-(3-hydroxy-2,6-dimethylphenyl)-7H-pyrrolo[2,3-d]pyrimidine-5-carboxamide], the IC50 under setting [1] was determined as 12.9 nM.

Consider `Cc1c(O)cc(F)c(C)c1-n1c(N)c(C(N)=O)c2cc(C#N)cnc21` [Example 98], for which, under setting [1], the IC50 came to 8.11 nM.

For the molecule `Cc1nc(C)c2c(C(N)=O)c(N)n(-c3c(C)ccc(O)c3C)c2n1` (atropisomer, axis not shown) [Example 19.2], the IC50 (read-out: ADP-GLO IC50; PKMYT1 enzyme 10 nM, ATP 5 µM, 37°C 90 minutes) was 9.55 nM.

Turning to `[2H]C([2H])([2H])c1nc2c(cc1C(F)(F)F)c(C(N)=O)c(N)n2-c1c(C)cc(F)c(O)c1C` (racemic) [Example 194], the 50% inhibitory concentration (IC50) under setting [1] was 6.36 nM.

`Cc1cc2c(C(N)=O)c(N)n(-c3c(C)c(F)cc(O)c3F)c2nc1C` [Example 107]: the IC50 under setting [1] amounted to 14.1 nM.

For `Cc1ccc(O)c(C)c1-n1c(N)c(C(N)=O)c2c3c(c(C)nc21)OCC3` [Example 187], the 50% inhibitory concentration (IC50) under setting [1] came out at 43.5 nM.

On to `Cc1ccc(O)c(C)c1-n1c(N)c(C(N)=O)c2cnc(CCC3CC3)nc21` [Example 86], for which the 50% inhibitory concentration (IC50) under setting [1] worked out at 5.47 nM.

With `Cc1cc(F)c(O)c(C)c1-n1c(N)c(C(N)=O)c2cc(C3CC3)cnc21` (atropisomer, axis not shown) [Example 144], under setting [1], the IC50 stood at 5.74 nM.

Take `Cc1cc(F)c(O)c(C)c1-n1c(N)c(C(N)=O)c2cc(C3CCOCC3)c(C)nc21` (atropisomer, axis not shown) [Example 163.1]: the 50% inhibitory concentration (IC50) under setting [1] came out at 5.7 nM.

Regarding `Cc1cc(F)c(O)c(C)c1-n1c(N)c(C(N)=O)c2cc(C3=CCOCC3)c(C)nc21` (atropisomer, axis not shown) [Example 175], the half-maximal inhibitory concentration (IC50) under setting [1] amounted to 4.8 nM.

For `Cc1ccc(O)c(C)c1-n1c(N)c(C(N)=O)c2c3cnccc3c(C)cc21` (racemic) [Example 189, 8-amino-7-(3-hydroxy-2,6-dimethylphenyl)-S-methyl-7H-pyrrolo[2,3-h]isoquinoline-9-carboxamide], under setting [1], the concentration for half-maximal inhibition (IC50) turned out to be 5 nM.

On to `Cc1ccc(O)c(C)c1-n1c(N)c(C(N)=O)c2cnc(Nc3ccccc3)nc21` [Example 33, 6-Amino-7-(3-hydroxy-2,6-dimethylphenyl)-2-(phenylamino)-7H-pyrrolo[2,3-d]pyrimidine-5-carboxamide], for which the 50% inhibitory concentration (IC50) under setting [1] came to 11.3 nM.

As to `COc1cnc2c(c1)c(C(N)=O)c(N)n2-c1c(C)cc(F)c(O)c1C` [Example 149], the 50% inhibitory concentration (IC50) under setting [1] is 12.6 nM.

For `Cc1ncc2c(C(N)=O)c(N)n(-c3c(C)cc(F)c(O)c3C)c2n1` [Example 65], the half-inhibitory concentration (IC50) under setting [1] came out at 23.8 nM.

Regarding `CCc1cnc2c(c1)c(C(N)=O)c(N)n2-c1c(C)cc(F)c(O)c1C` [Example 140], the 50% inhibitory concentration (IC50) under setting [1] was 7.73 nM.

On to `Cc1ccc(O)c(C)c1-n1c(N)c(C(N)=O)c2cnc(C3=CCCCC3)nc21` [Example 9, 6-Amino-2-(cyclohex-1-en-1-yl)-7-(3-hydroxy-2,6-dimethylphenyl)-7H-pyrrolo[2,3-d]pyrimidine-5-carboxamide], for which the 50% inhibitory concentration (IC50) under setting [1] came to 9.05 nM.

Regarding `CCc1nc(C)nc2c1c(C(N)=O)c(N)n2-c1c(C)ccc(O)c1C` (atropisomer, axis not shown) [Example 66.1], the 50% inhibitory concentration (IC50) under setting [1] amounted to 16.5 nM.

As for `Cc1ccc(O)c(C)c1-n1c(N)c(C(N)=O)c2cnc(C3CCCCC3)nc21` [Example 10, 6-Amino-2-cyclohexyl-7-(3-hydroxy-2,6-dimethylphenyl)-7H-pyrrolo[2,3-d]pyrimidine-5-carboxamide], under setting [1], the half-inhibitory concentration (IC50) came to 13 nM.

Turning to `Cc1cc2c(C(N)=O)c(N)n(-c3c(C)cc(F)c(O)c3C)c2nc1F` [Example 73], the IC50 under setting [1] was determined as 13.4 nM.

Take `Cc1cc(F)c(O)c(C)c1-n1c(N)c(C(N)=O)c2cc(C(C)C)cnc21` (racemic) [Example 170]: the IC50 under setting [1] worked out at 18.1 nM.

In the case of `COC(C)(C)c1cc2c(C(N)=O)c(N)n(-c3c(C)cc(F)c(O)c3C)c2nc1C` [Example 171], the IC50 under setting [1] was determined as 26.8 nM.

On to `C=Cc1cnc2c(c1)c(C(N)=O)c(N)n2-c1c(C)cc(F)c(O)c1C` [Example 148], for which the IC50 under setting [1] was 7.32 nM.

As for `Cc1cc(F)c(O)c(C)c1-n1c(N)c(C(N)=O)c2c3c(cnc21)CCC3` (racemic) [Example 186], the IC50 under setting [1] is 7.41 nM.

Turning to `Cc1cc(F)c(O)c(C)c1-n1c(N)c(C(N)=O)c2c3c(c(C)nc21)CCC3` (racemic) [Example 176], under setting [1], the IC50 came to 9.81 nM.

As for `Cc1ccc(O)c(C)c1-n1c(N)c(C(N)=O)c2cnc(NC3CCCC3)nc21` [Example 76], the IC50 under setting [1] is 4.02 nM.

As for `Cc1nc(C2CC2)c2c(C(N)=O)c(N)n(-c3c(C)ccc(O)c3C)c2n1` (racemic) [Example 62], the IC50 under setting [1] was found to be 16.9 nM.

As to `Cc1ccc(O)c(C)c1-n1c(N)c(C(N)=O)c2cnc(N3CCCCC3)nc21` [Example 13, 6-Amino-7-(3-hydroxy-2,6-dimethylphenyl)-2-(piperidin-1-yl)-7H-pyrrolo[2,3-d]pyrimidine-5-carboxamide], the 50% inhibitory concentration (IC50) under setting [1] came out at 12.2 nM.

`Cc1ccc(O)c(C)c1-n1c(N)c(C(N)=O)c2cnc(-c3ccccc3)nc21` [Example 11, 6-Amino-7-(3-hydroxy-2,6-dimethylphenyl)-2-phenyl-7H-pyrrolo[2,3-d]pyrimidine-5-carboxamide]: the 50% inhibitory concentration (IC50) under setting [1] worked out at 15.7 nM.

As to `Cc1cnc2c(c1)c(C(N)=O)c(N)n2-c1c(C)c(O)cc(F)c1C` [Example 89], under setting [1], the IC50 worked out at 3 nM.

Consider `Cc1cc2c(C(N)=O)c(N)n(-c3c(C)c(O)cc(Cl)c3C)c2nc1C` [Example 48, 2-Amino-1-(3-chloro-5-hydroxy-2,6-dimethylphenyl)-5,6-dimethyl-1H-pyrrolo[2,3-b]nicotinamide], for which the IC50 under setting [1] came to 36.8 nM.

Take `COc1c(O)ccc(C)c1-n1c(N)c(C(N)=O)c2cc(C)c(C)nc21` [Example 94]: under setting [1], the IC50 was 408 nM.

Turning to `Cc1ccc(O)c(C)c1-n1c(N)c(C(N)=O)c2cnc(C3CCC(F)(F)CC3)nc21` [Example 88], the 50% inhibitory concentration (IC50) under setting [1] was found to be 16 nM.

`C/C=C/c1ncc2c(C(N)=O)c(N)n(-c3c(C)ccc(O)c3C)c2n1` [Example 79]: the concentration for half-maximal inhibition (IC50) under setting [1] stood at 4.74 nM.

Take `Cc1cc(F)c(O)c(C)c1-n1c(N)c(C(N)=O)c2cc(C3CCOCC3)c(C)nc21` (atropisomer, axis not shown) [Example 163]: under setting [1], the half-inhibitory concentration (IC50) stood at 23.4 nM.

With `CCN(CC)c1ncc2c(C(N)=O)c(N)n(-c3c(C)ccc(O)c3C)c2n1` [Example 17, 6-Amino-2-(diethylamino)-7-(3-hydroxy-2,6-dimethylphenyl)-7H-pyrrolo[2,3-d]pyrimidine-5-carboxamide], the IC50 under setting [1] is 71.5 nM.

Take `Cc1ccc(O)c(C)c1-n1c(N)c(C(N)=O)c2cnc(Cl)nc21` [Example 5, 6-Amino-2-chloro-7-(3-hydroxy-2,6-dimethylphenyl)-7H-pyrrolo[2,3-d]pyrimidine-5-carboxamide]: the 50% inhibitory concentration (IC50) under setting [1] worked out at 8.01 nM.

`Cc1cc(F)c(O)c(C)c1-n1c(N)c(C(N)=O)c2cc(C(F)F)c(C)nc21` [Example 204]: the IC50 under setting [1] is 18.9 nM.

For the molecule `Cc1cc(F)c(O)c(C)c1-n1c(N)c(C(N)=O)c2cc(N(C)C)c(C)nc21` (racemic) [Example 169], under setting [1], the IC50 is 26.2 nM.

Turning to `Cc1ccc(O)c(C)c1-n1c(N)c(C(N)=O)c2cncnc21` [Example 45, 6-Amino-7-(3-hydroxy-2,6-dimethylphenyl)-7H-pyrrolo[2,3-d]pyrimidine-5-carboxamide], under setting [1], the IC50 was found to be 10.8 nM.

For the molecule `Cc1ncc2c(C(N)=O)c(N)n(-c3c(C)c(O)cc(F)c3C)c2n1` (racemic) [Example 63], the half-inhibitory concentration (IC50) under setting [1] was 5.14 nM.

Consider `CCc1nc(C)nc2c1c(C(N)=O)c(N)n2-c1c(C)c(O)cc(F)c1C` [Example 61], for which the IC50 under setting [1] came out at 38.6 nM.

In the case of `Cc1cc(F)c(O)c(C)c1-n1c(N)c(C(N)=O)c2cc(N3CCCC3)c(C)nc21` (atropisomer, axis not shown) [Example 162.1], under setting [1], the IC50 came to 9.1 nM.

With `Cc1cc2c(C(N)=O)c(N)n(-c3c(C)c(O)c(F)c(F)c3C)c2nc1C` [Example 54], the IC50 under setting [1] amounted to 17.5 nM.

Take `[2H]C([2H])([2H])c1cc(F)c(O)c(C([2H])([2H])[2H])c1-n1c(N)c(C(N)=O)c2cc(C(F)(F)F)c(C)nc21` [Example 193]: under setting [1], the IC50 was 7.94 nM.

For `[2H]C([2H])([2H])c1c(O)c(F)cc(C)c1-n1c(N)c(C(N)=O)c2cc(C(F)(F)F)c(C)nc21` (atropisomer, axis not shown) [Example 195.1], under setting [1], the IC50 came to 2.8 nM.

Regarding `Cc1cc2c(C(N)=O)c(N)n(-c3c(C)cc(F)c(O)c3C)c2nc1Cl` [Example 74], the half-maximal inhibitory concentration (IC50) under setting [1] stood at 7.11 nM.

With `C=Cc1cc2c(C(N)=O)c(N)n(-c3c(C)cc(F)c(O)c3C)c2nc1C` (single isomer, unassigned) [Example 142.1], the IC50 under setting [1] was 10.1 nM.

With `Cc1cc(F)c(O)c(C)c1-n1c(N)c(C(N)=O)c2cc(C3CC3)cnc21` (single isomer, unassigned) [Example 144.1], the IC50 under setting [1] came to 2.08 nM.

These data come from patent publication EP4624471A1, “PKMYT1 INHIBITOR, PREPARATION METHOD THEREFOR, AND PHARMACEUTICAL COMPOSITION AND USE THEREOF” (Shanghai Qilu Pharmaceutical Research and Development …, priority 2022, dated 2024).
